{
  "source": "patent US7741311B2",
  "about": "“Composition and method for treating occlusive vascular diseases, nerve regeneration, and wound healing” (priority 2005, dated 2010)",
  "key": {"[1]": {"test_system": "human dermal micro-vascular endothelial cells (HDMEC)", "assay": "three-dimensional in vitro sprout angiogenesis assay (endothelial cells on gelatin-coated beads in fibrin gel)", "type": "cell-based", "details": "Ch 2 (10 μg); sub-threshold levels of VEGF and b-FGF; P<0.01", "description": "The effect of low molecular weight sulfated saccharides (molecular weight<5000 Dalton) on micro-vascular endothelial cell sprouting (in Vitro 3D Sprout Angiogenesis) is depicted with respect to culture of HDMEC on micro-carrier beads in FIG. 19. 80% confluent HDMEC (Passage 5-10) are mixed with gelatin-coated Cytodex-3 beads with a ratio of 40 cells per bead. If using 24-well plate for the assay, 150-200 beads per well are used. Cells and beads are suspended with 5 ml EBM+15% normal human serum, mixed gently every one hour for first four hours. Then the mixture culture is left in CO2 incubator overnight. The next morning, 10 ml of fresh EBM+15% HS and culture are added for another three hours. Before experiments, the culture of EC-beads is checked. 500 ul of PBS in a well of 24-well plate is added. 100 ul of the EC-bead culture solution is added to the PBS. The number of beads are observed and counted. The concentration of EC-beads is calculated. […]\nCulture of HDMEC on micro-carrier beads: 80% confluent HDMEC (Passage 5-10) were mixed with gelatin-coated Cytodex-3 beads with a ratio of 40 cells per bead. […] The number of beads is counted and the concentration of EC-beads is calculated. […]\nGrowth factors: VEGF (30 ng/ml)+FGF2 (25 ng/ml) CH2: Sulfated Hexasaccharide at 10 ug/ml. […] A quantitative three-dimensional in vitro assay method was utilized to screen compounds for angiogenic activity. […]"}, "[2]": {"test_system": "chick chorioallantoic membrane (CAM)", "assay": "neovascularization in the chick chorioallantoic membrane (CAM) model", "type": "in vivo", "details": "n = 8", "description": "In vivo neovascularization was examined by the method previously described by Auerbach et al. (Auerbach et al., J. Dev. Biol., 41:391-394 (1974), which is hereby incorporated by reference in its entirety). Ten-day old embryos were purchased from Spafas, Inc. (Preston, Conn.) and were incubated at 37° C. with 55% relative humidity. In the dark with the help of a candling lamp, a small hole was punctured in the shell concealing the air sac with a hypodermic needle. A second hole was punctured in the shell on the broadside of the egg directly over an avascular portion of the embryonic membrane, as observed during candling. […]\n(§1) CAM tissue directly beneath FGF2-saturated filter disk was resected from embryos treated 48 hours prior with test compound or control. […] Digital images of CAM sections adjacent to filters were collected using a 3-CCD color video camera system (Toshiba America, New York, N.Y.) and analyzed using Image-Pro Plus software (Media Cybernetics, Silver Spring, Md.).\nas §1, with “48 h” for “48 hours”, “with” for “with test”, “analyzed with the” for “analyzed using”"}},
  "data": [
    {"compound": "COc1cccc(-c2cc(=O)c3ccccc3o2)c1N", "note": "[PD9805]", "values": [
      {"measurement": "blockade of angiogenesis promoted by Ch 2", "setting": "[1]", "result": "blocked"},
      {"measurement": "Mean % Inhibition ± SEM", "setting": "[2]; inhibition of Ch 2 (10 μg) pro-angiogenesis by inhibitor 4.8 μg, P < 0.01", "result": "71 ± 6", "unit": "%"},
      {"measurement": "Mean Branch Points ± SEM", "setting": "[2]; inhibitor 4.8 μg added to PBS + Ch 2 (10 μg)", "result": "95 ± 8"}
    ]}
  ]
}
